Laboratory results reported in patent publication US8946218B2, “CCR2 receptor antagonists, method for producing the same, and use thereof as medicaments” (Boehringer Ingelheim International GmbH, priority 2010, dated 2015).

The compounds below were run against T1, CCR2 (Homo sapiens, UniProt P41597) (assay: Receptor membrane binding assay: [125I]MCP-1 binding to CCR2 on THP-1 cell membranes (SPA beads)). Conditions: THP-1 membranes, [125I]MCP-1, bound radioactivity after 8 h; read-out: hKi.
T1 construct: Membranes were prepared from THP-1 cells; endogenous in cells; host or cells: THP-1 (human acute monocytic leukaemia cells), membrane preparation
T1 sequence (P41597 whole entry): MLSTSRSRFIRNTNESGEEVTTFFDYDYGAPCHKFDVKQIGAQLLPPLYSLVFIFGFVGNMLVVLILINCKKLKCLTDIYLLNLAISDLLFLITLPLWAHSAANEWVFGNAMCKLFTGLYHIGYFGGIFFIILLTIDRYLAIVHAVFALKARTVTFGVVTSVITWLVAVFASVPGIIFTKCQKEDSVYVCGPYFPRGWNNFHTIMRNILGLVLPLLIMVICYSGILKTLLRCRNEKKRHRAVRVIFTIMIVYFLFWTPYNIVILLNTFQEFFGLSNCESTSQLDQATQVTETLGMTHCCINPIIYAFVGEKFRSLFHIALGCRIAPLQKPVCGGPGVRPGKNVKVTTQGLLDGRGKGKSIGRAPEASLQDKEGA
Procedure: The above exemplary substances have been tested for binding to CCR2 using a binding assay as outlined herein below:
THP-1 cells (human acute monocytic leukaemia cells) were cultured under standardized conditions at 37° C. and 5% CO2 in a humidified incubator. THP-1 cells were cultivated in RPMI 1640 medium (Gibco 21875) containing 1% MEM-NEAA (Gibso 11140) 2 mM L-glutamine, 1.5 g/L sodium bicarbonate, 4.5 g/L glucose, 10 mM HEPES and 1.0 mM sodium pyruvate, 90%; 10% fetal calf serum (FCS Gibco 10500-064).
Membranes were prepared from THP-1 cells. THP-1 cells were centrifuged at 300×g at 4° C. for 10 min. The cell pellet was resuspended in Phosphate Buffer Saline (PBS, including 10 μM Pefabloc and a protease inhibitor mix ‘complete’, Boehringer Mannheim (1 tablet/50 ml)), to a concentration of […]. The membrane preparation was performed by disrupting the cells by nitrogen […] (at 50 bar, for 1 h) in a “Nitrogen Bombe” (Parr Instrument). Cell debris was removed by centrifugation (800×g at 4° C., 1 min). The supernatant was centrifuged at 80000×g, 4° C. for 30 min to sediment the cell membranes. Usually 50 mg of protein (Bradford assay) were yielded from 1×10E9 cells. The membranes were resuspended in 25 mM HEPES, 25 mM MgCl2, 1 mM CaCl2, 10% Glycerine for storage in aliquots at −80° C. in 25 mM HEPES, 25 mM MgCl2, 1 mM CaCl2, 10% Glycerine and stored at −80° C.
Receptor Membrane Binding Assay:
Perkin Elmer NEX 332 Jod 125 MCP-1, Stock: 2200 Ci/mmol solved in 2000 μl assay buffer, stored at −20° C. THP-1 membrane were adjusted with 25 mM HEPES, pH 7.2; 5 mM MgCl2; 0.5 mM CaCl2; 0.2% BSA assay buffer to a concentration of 2.5 μg/15 μl. Amersham Biosciences PVT-WGA Beads (RPNQ0001) were adjusted with assay buffer to a concentration of 0.24 mg/30 μl. For preparation of the membrane-bead-suspension membranes and beads were incubated for 30 min at RT under rotation (60 rpm) with a ratio of 1:2. Test compounds dissolved in 100% DMSO to a concentration of 10 mM and are further diluted with 100% DMSO to 1 mM. All additional compound dilutions were obtained with assay buffer, final 1% DMSO. Compounds, membrane-bead-suspension and [125I]MCP-1 (ca. 25000 cpm/10 μl) were incubated. Bound radioactivity was determined by scintillation counter after 8 h. Determination of affinity of test compounds (dissociation constant hKi) is calculated by iterative fitting of experimental data using the “easy sys” program, which is based on law of mass action (Schittkowski K. (1994), Numerische Mathematik, Vol. 68, 129-142).

Ki [nM]	Compound
0.5	COc1nc(Nc2ccc(Cl)c(Cl)c2)c(C)c(C(=O)N2CCC(N[C@H]3CCOC[C@H]3OC)CC2)n1 [Example 33a]
0.7	COc1nc(Nc2ccc(Cl)c(Cl)c2)c(C)c(C(=O)N2CCC(N[C@@H]3CCOC[C@@H]3OC)CC2)n1 [Example 33b]
0.2	CO[C@@H]1COCC[C@@H]1NC1CCN(C(=O)c2nc(C(F)(F)F)nc(Nc3ccc(Cl)c(Cl)c3)c2C)CC1 [Example 33c]
0.3	CO[C@H]1COCC[C@H]1NC1CCN(C(=O)c2nc(C(F)(F)F)nc(Nc3ccc(Cl)c(Cl)c3)c2C)CC1 [Example 33d]
23	Cc1c(Nc2ccc(Cl)c(Cl)c2)ncnc1C(=O)N1CCC(N[C@H]2CCOC[C@H]2F)CC1 [Example 33e]
8	Cc1c(Nc2ccc(Cl)c(Cl)c2)ncnc1C(=O)N1CCC(N[C@@H]2CCOC[C@@H]2F)CC1 [Example 33g]
2	COc1nc(Nc2ccc(Cl)c(Cl)c2)c(C)c(C(=O)N2CCC(NC3CCOCC3F)CC2)n1 (centres unmarked) [Example 33h]
3	COc1nc(Nc2cccc(C(F)(F)F)c2)c(C)c(C(=O)N2CCC(N[C@@H]3CCOC[C@@H]3OC)CC2)n1 [Example 33i]
1	COc1nc(Nc2cccc(C(F)(F)F)c2)c(C)c(C(=O)N2CCC(N[C@H]3CCOC[C@H]3OC)CC2)n1 [Example 33j]
5	COc1nc(Nc2cccc(C(F)(F)F)c2)c(C)c(C(=O)N2CCC(NC3CCOCC3F)CC2)n1 (centres unmarked) [Example 33k]
6	Cc1c(Nc2ccc(Cl)c(Cl)c2)ncnc1C(=O)N1CCC(NC2CCOCC2)CC1 [Example 33l]
0.7	COc1nc(Nc2ccc(Cl)c(Cl)c2)c(C)c(C(=O)N2CCC(NC3CCOCC3)CC2)n1 [Example 33m]
1	Cc1c(Nc2ccc(Cl)c(Cl)c2)nc(C(F)(F)F)nc1C(=O)N1CCC(NC2CCOCC2)CC1 [Example 33n]
0.2	CO[C@@H]1COCC[C@@H]1NC1CCN(C(=O)c2nc(C3CC3)nc(Nc3ccc(Cl)c(Cl)c3)c2C)CC1 [Example 33o]
0.3	CO[C@H]1COCC[C@H]1NC1CCN(C(=O)c2nc(C3CC3)nc(Nc3ccc(Cl)c(Cl)c3)c2C)CC1 [Example 33p]
0.8	Cc1c(Nc2ccc(Cl)c(Cl)c2)nc(C2CC2)nc1C(=O)N1CCC(N[C@H]2CCOC[C@H]2F)CC1 [Example 33q]
0.9	Cc1c(Nc2ccc(Cl)c(Cl)c2)nc(C2CC2)nc1C(=O)N1CCC(N[C@@H]2CCOC[C@@H]2F)CC1 [Example 33r]
1	Cc1c(Nc2cccc(C(F)(F)F)c2)nc(C2CC2)nc1C(=O)N1CCC(N[C@@H]2CCOC[C@@H]2F)CC1 [Example 33s]

Second part, the compound before the results:

Compound	Ki [nM]
COC1COCCC1NC1CCN(C(=O)c2ncnc(Nc3cccc(C(F)(F)F)c3)c2C)CC1 (centres unmarked) [Example 1]	16
COC1COCCC1NC1CCN(C(=O)c2ncnc(Nc3cc(C(F)(F)F)cc(C(F)(F)F)c3)c2C)CC1 (centres unmarked) [Example 2]	121
COC1COCCC1NC1CCN(C(=O)c2ncnc(Nc3ccccc3)c2C)CC1 (centres unmarked) [Example 3]	450
COC1COCCC1NC1CCN(C(=O)c2ncnc(Nc3cccc(C(F)(F)F)n3)c2C)CC1 (centres unmarked) [Example 4]	110
COC1COCCC1NC1CCN(C(=O)c2ncnc(Nc3cccc(C)c3)c2C)CC1 (centres unmarked) [Example 5]	232
CO[C@H]1COCC[C@H]1NC1CCN(C(=O)c2cc(Nc3cccc(C(F)(F)F)c3)ncn2)CC1 [Example 6]	280
CO[C@@H]1COCC[C@@H]1NC1CCN(C(=O)c2cc(Nc3cccc(C(F)(F)F)c3)ncn2)CC1 [Example 7]	138
CN(C1CCN(C2CCN(C(=O)c3cc(Nc4cccc(C(F)(F)F)c4)ncn3)CC2)CC1)S(C)(=O)=O [Example 8]	398
COC1COCCC1NC1CCN(C(=O)c2ncnc(Nc3ccc(Cl)c(Cl)c3)c2C)CC1 (centres unmarked) [Example 9]	2
COC1COCCC1NC1CCN(C(=O)c2ncnc(N(C)c3cccc(C(F)(F)F)c3)c2C)CC1 (centres unmarked) [Example 10]	481
COC1COCCC1NC1CCN(C(=O)c2ncnc(Nc3cccc(OC(F)(F)F)c3)c2C)CC1 (centres unmarked) [Example 11]	15
COC1COCCC1NC1CCN(C(=O)c2ncnc(Nc3cc(Cl)ccc3C)c2C)CC1 (centres unmarked) [Example 12]	728
COC1COCCC1NC1CCN(C(=O)c2ncnc(Nc3cccc(Cl)c3C)c2C)CC1 (centres unmarked) [Example 13]	2990
COC1COCCC1NC1CCN(C(=O)c2ncnc(Nc3cccc(F)c3)c2C)CC1 (centres unmarked) [Example 14]	146
COC1COCCC1NC1CCN(C(=O)c2ncnc(Nc3ccc(Br)cc3)c2C)CC1 (centres unmarked) [Example 15]	30
COC1COCCC1NC1CCN(C(=O)c2ncnc(Nc3cccc(-c4ccncc4)c3)c2C)CC1 (centres unmarked) [Example 16]	707
COC1COCCC1NC1CCN(C(=O)c2ncnc(Nc3ccccc3Cl)c2C)CC1 (centres unmarked) [Example 17]	5180
CO[C@@H]1COCC[C@@H]1NC1CCN(C(=O)c2ncnc(Nc3ccc(Cl)c(Cl)c3)c2C)CC1 [Example 17a]	1

Compound	Ki [nM]
CO[C@H]1COCC[C@H]1NC1CCN(C(=O)c2ncnc(Nc3ccc(Cl)c(Cl)c3)c2C)CC1 [Example 17b]	5
CO[C@@H]1COCC[C@@H]1NC1CCN(C(=O)c2ncnc(Nc3cccc(C(F)(F)F)c3)c2C)CC1 [Example 18]	6
COc1c(Nc2cccc(C(F)(F)F)c2)ncnc1C(=O)N1CCC(N[C@@H]2CCOC[C@@H]2OC)CC1 [Example 19]	49
COc1c(Nc2cccc(C(F)(F)F)c2)ncnc1C(=O)N1CCC(N[C@H]2CCOC[C@H]2OC)CC1 [Example 20]	26
COc1c(Nc2cccc(C(F)(F)F)c2)ncnc1C(=O)N1CCC(N2CCC(N(C)S(C)(=O)=O)CC2)CC1 [Example 21]	23
Cc1c(Nc2ccc3ccccc3c2)ncnc1C(=O)N1CCC(N2CCC(N(C)S(C)(=O)=O)CC2)CC1 [Example 22]	14
COC1COCCC1NC1CCN(C(=O)c2ncnc(Nc3ccc4ccccc4c3)c2C)CC1 (centres unmarked) [Example 23]	17
Cc1c(Nc2cc3ccccc3c(C)n2)ncnc1C(=O)N1CCC(N2CCC(N(C)S(C)(=O)=O)CC2)CC1 [Example 24]	854
CO[C@@H]1COCC[C@@H]1NC1CCN(C(=O)c2ccnc(Nc3cccc(C(F)(F)F)c3)c2C)CC1 [Example 25]	165
CO[C@H]1COCC[C@H]1NC1CCN(C(=O)c2ccnc(Nc3cccc(C(F)(F)F)c3)c2C)CC1 [Example 26]	46
CO[C@@H]1COCC[C@@H]1NC1CCN(C(=O)c2nccc(Nc3cccc(C(F)(F)F)c3)c2C)CC1 [Example 27]	5
CO[C@H]1COCC[C@H]1NC1CCN(C(=O)c2nccc(Nc3cccc(C(F)(F)F)c3)c2C)CC1 [Example 28]	10
Cc1c(Nc2cccc(C(F)(F)F)c2)ncnc1C(=O)N1CCC(N2CCOCC2)CC1 [Example 29]	53
CO[C@@H]1COCC[C@@H]1NC1CCN(C(=O)c2ncnc(Nc3ccc(Cl)c(C(F)(F)F)c3)c2C)CC1 [Example 30]	1480
CO[C@H]1COCC[C@H]1NC1CCN(C(=O)c2ncnc(Nc3ccc(Cl)c(C(F)(F)F)c3)c2C)CC1 [Example 31]	5310
CO[C@@H]1COCC[C@@H]1NC1CCN(C(=O)c2cc(Nc3cccc(C(F)(F)F)c3)nc(C(F)(F)F)n2)CC1 [Example 32]	64
CO[C@H]1COCC[C@H]1NC1CCN(C(=O)c2cc(Nc3cccc(C(F)(F)F)c3)nc(C(F)(F)F)n2)CC1 [Example 33]	36
